This is an account of results in patent US6376497B1, “Antifungal azole derivatives having a fluorinated vinyl group and process for preparing same” (Korea Research Institute of Chemical Technology, priority 1999, dated 2002).

Common to all, as to assay: In vitro antifungal activity, microbroth dilution MIC
Common to all, as to format: cell-based
A general note: Broth dilution looks for growth in wells or tubes with falling amounts of substance.

The subject of test [1] is Cryptococcus neoformans IFM. 40092. The settings on record: Cry. neoformans IFM. 40092, RPMI-1640, 35° C., 4 to 48 hours. The method, then:
(§1) In vitro antifungal activities of the inventive antifungal compounds were evaluated using the test strains shown in Table VIII by the following microbroth dilution method which is a modified version of the procedure recommended by National Committee for Clinical Laboratory Standards(see National Committee for Clinical Laboratory Standards, 1992, Reference methods for broth dilution antifungal susceptibility testing of yeasts, Proposed standard M27-P, National Committee for clinical laboratory standards, Villanova, Pa; and National Committee for Clinical Laboratory Standards, 1995, Reference methods for broth dilution antifungal susceptibility testing of yeasts. Tentative standard M27-T, National Committee for clinical laboratory standards, Villanova, Pa).
(§2) Sabourad Dextrose Agar(Difco) was used as a culture medium, and RPMI-1640 broth(Sigma. Co. w/L-glutamine, wo/NaHCO3)(0.165 M MOPS, pH 7.0), as a dilution medium.
(§3) Each of the test strains were subcultured in Sabourad Dextrose Agar medium twice and a stain sample was taken from prominent colonies and suspended in sterile physiological saline solution in a cap tube. The turbidity of the suspension was adjusted to that of the Mcfarland 0.5 standard sample(approximately 10^6 CFU/ml). Then the suspension was diluted 500-fold with sterile RPMI-1640 liquid medium to 2×10^3 CFU/ml.
(§4) Each of the test compounds(the compounds obtained in Examples 1 to 150 and comparative compounds, i.e., fluconazole(FCZ) and itraconazole (ICZ)), was dissolved in DMSO to give a stock solution having a concentration of 4000 μg/ml and the stock solution was successively diluted to obtain test solutions having test compound concentrations of 200, 100, 50, 25, 12.5, 6.25, 3.13, 1.56, 0.78, 0.39, 0.20 and 0.10 μg/ml, respectively.
(§5) 0.1 ml portion of the test solutions were added to the wells of a sterile 96 well plate. Then, 0.1 ml portion of each of the test strain solutions were added successively to the wells and the plate was incubated at 35° C. for 4 to 48 hours.
(§6) Minimal inhibitory concentration(MIC) of each compound was defined as the concentration of the test compound where no growth of the strain could be observed.

The subject of test [2] is Trichophyton mentagrophytes B. 32663. The settings on record: T. mentagrophytes B. 32663, RPMI-1640, 35° C., 4 to 48 hours. The protocol:
as §1, §2, §3, §4, §5, §6

Another test concerns Candida krusei K. 11655. As to conditions: C. krusei K. 11655, RPMI-1640, 35° C., 4 to 48 hours. The protocol:
as §1, §2, §3, §4, §5, §6

In test [3] the test system is Candida albicans A. 10231. As to conditions: C. albicans A. 10231, RPMI-1640, 35° C., 4 to 48 hours. The method, then: as §1, §2, §3, §4, §5, §6
Test [4] concerns Aspergillus niger A. 16404. The settings on record: A. niger A. 16404, RPMI-1640, 35° C., 4 to 48 hours. The method, then:
as §1, §2, §3, §4, §5, §6

For test [5], the system named is Candida tropicalis A. 13803. As to conditions: C. tropicalis A. 13803, RPMI-1640, 35° C., 4 to 48 hours. The method, then: as §1, §2, §3, §4, §5, §6
Test [6] concerns Cryptococcus neoformans B. 42419. The settings on record: Cry. neoformans B. 42419, RPMI-1640, 35° C., 4 to 48 hours. The method, then:
as §1, §2, §3, §4, §5, §6

The test system of test [7] is Candida pseudotropicalis K. 11658. As to conditions: C. pseudotropicalis K. 11658, RPMI-1640, 35° C., 4 to 48 hours. The protocol:
as §1, §2, §3, §4, §5, §6

For test [8], the system named is Aspergillus furnigatus B. 19119. As to conditions: A furnigatus B. 19119, RPMI-1640, 35° C., 4 to 48 hours. The method, then: as §1, §2, §3, §4, §5, §6
Test [9] deals with Trichophyton mentagrophytes A. 9129. The settings on record: T. mentagrophytes A. 9129, RPMI-1640, 35° C., 4 to 48 hours. The protocol: as §1, §2, §3, §4, §5, §6
For test [10], the system named is Torulopsis glabrata B. 16205. The settings on record: T. glabrata B. 16205, RPMI-1640, 35° C., 4 to 48 hours. The protocol:
as §1, §2, §3, §4, §5, §6

The test system of test [11] is Candida albicans IFO. 1385. The settings on record: C. albicans IFO. 1385, RPMI-1640, 35° C., 4 to 48 hours. The protocol: as §1, §2, §3, §4, §5, §6
For test [12], the system named is Cryptococcus neoformans A. 34144. The settings on record: Cry. neoformans A. 34144, RPMI-1640, 35° C., 4 to 48 hours. The protocol:
as §1, §2, §3, §4, §5, §6

The test system of test [13] is Candida parapsitosis A. 7330. As to conditions: C. parapsitosis A. 7330, RPMI-1640, 35° C., 4 to 48 hours. The protocol:
as §1, §2, §3, §4, §5, §6

The test system of a further test is Candida albicans C1-2. As to conditions: C. albicans C1-2, RPMI-1640, 35° C., 4 to 48 hours. The method, then:
as §1, §2, §3, §4, §5, §6

In the case of `CCOc1ccc(C=C(F)OCC2COC(Cn3ccnc3)(c3ccc(F)cc3F)O2)cc1` (mixture of isomers) [Ex. 44], the “Minimal inhibitory concentration (MIC)” value in [1] is 0.39 µg/mL; in [2], 1.56 µg/mL; in the test with Candida krusei K. 11655 it was 12.5 µg/mL; in [3], 25.0 µg/mL; in test [4], >100 µg/mL; in test [5], 50.0 µg/mL. Also, the “Minimal inhibitory concentration (MIC)” value in [6] was determined as 1.56 µg/mL; in [7] it was 6.25 µg/mL; in test [8], 12.5 µg/mL; in [9], 6.25 µg/mL; in test [10] it was 6.25 µg/mL; in [11] it was 0.39 µg/mL. Also, the “Minimal inhibitory concentration (MIC)” value in test [12] is 1.56 µg/mL; in [13], 12.5 µg/mL; in the test on Candida albicans C1-2, 25.0 µg/mL.
In the case of `CC(C)Oc1cccc(C=C(F)OCC2COC(Cn3ccnc3)(c3ccc(F)cc3F)O2)c1` (mixture of isomers) [Ex. 45], the “Minimal inhibitory concentration (MIC)” value in [1] was 0.39 µg/mL; in test [2], 1.56 µg/mL; with Candida krusei K. 11655, 12.5 µg/mL; in test [3], 25.0 µg/mL; in test [4] it was 100 µg/mL; in test [5], 50.0 µg/mL. Moreover, the “Minimal inhibitory concentration (MIC)” value in [6] came to 1.56 µg/mL; in test [7], 6.25 µg/mL; in test [8], 12.5 µg/mL; in test [9] it was 6.25 µg/mL; in test [10], 6.25 µg/mL; in test [11], 0.39 µg/mL. For the same molecule, the “Minimal inhibitory concentration (MIC)” value in [12] worked out at 1.56 µg/mL; in [13], 12.5 µg/mL; in the test on Candida albicans C1-2 it was 25.0 µg/mL.
`FC(=Cc1ccc(Cl)cc1)OCC1COC(Cn2ccnc2)(c2ccc(F)cc2F)O1` (mixture of isomers) [Ex. 47]: the “Minimal inhibitory concentration (MIC)” value in [1] was “≦0.10 μg/ml”; in test [2], “≦0.10 μg/ml”; in the test with Candida krusei K. 11655, 12.5 µg/mL; in [3], 12.5 µg/mL; in test [4], 6.25 µg/mL; in test [5] it was 25.0 µg/mL. In addition, the “Minimal inhibitory concentration (MIC)” value stood at 0.78 µg/mL in [6]; 6.25 µg/mL in test [7]; 1.56 µg/mL in test [8]; 0.39 µg/mL in [9]; 6.25 µg/mL in test [10]; 0.20 µg/mL in [11]. For the same molecule, the results for the “Minimal inhibitory concentration (MIC)” value (in test [12]; in [13]; in the test on Candida albicans C1-2) were 0.78 µg/mL, 6.25 µg/mL and 12.5 µg/mL, respectively.
For `FC(=Cc1cccc(F)c1)OCC1COC(Cn2ccnc2)(c2ccc(F)cc2F)O1` (mixture of isomers) [Ex. 48], the “Minimal inhibitory concentration (MIC)” value is “≦0.10 μg/ml” in test [1]; “≦0.10 μg/ml” in [2]; 25.0 µg/mL with Candida krusei K. 11655; 25.0 µg/mL in [3]; 6.25 µg/mL in [4]; 50.0 µg/mL in test [5]. In addition, the “Minimal inhibitory concentration (MIC)” value in test [6] is 0.78 µg/mL; in test [7] it was 12.5 µg/mL; in test [8], 1.56 µg/mL; in test [9], 0.39 µg/mL; in test [10] it was 12.5 µg/mL; in [11], 0.20 µg/mL. The “Minimal inhibitory concentration (MIC)” value in [12] turned out to be 0.78 µg/mL; in test [13], 25.0 µg/mL; in the test with Candida albicans C1-2, 25.0 µg/mL.
Consider `FC(=Cc1ccc(F)cc1)OCC1COC(Cn2ccnc2)(c2ccc(F)cc2F)O1` (mixture of isomers) [Ex. 49], for which the “Minimal inhibitory concentration (MIC)” value is “≦0.10 μg/ml” in test [1]; “≦0.10 μg/ml” in test [2]; 25.0 µg/mL with Candida krusei K. 11655; 25.0 µg/mL in test [3]; 6.25 µg/mL in test [4]; 50.0 µg/mL in test [5]. Also, the “Minimal inhibitory concentration (MIC)” value in test [6] came out at 0.78 µg/mL; in test [7] it was 12.5 µg/mL; in test [8], 1.56 µg/mL; in [9], 0.39 µg/mL; in test [10], 12.5 µg/mL; in test [11], 0.20 µg/mL. The “Minimal inhibitory concentration (MIC)” value in test [12] is 0.78 µg/mL; in test [13], 25.0 µg/mL; in the test with Candida albicans C1-2 it was 25.0 µg/mL.
Consider `Cc1cc(C=C(F)OCC2COC(Cn3ccnc3)(c3ccc(F)cc3F)O2)ccc1Cl` (mixture of isomers) [Ex. 50], for which the “Minimal inhibitory concentration (MIC)” value in [1] came to 0.20 µg/mL; in test [2], 0.78 µg/mL; with Candida krusei K. 11655, 25.0 µg/mL; in test [3] it was 12.5 µg/mL; in test [4] it was 25.0 µg/mL; in [5] it was 25.0 µg/mL. For the same molecule, the “Minimal inhibitory concentration (MIC)” value amounted to 1.56 µg/mL in test [6]; 12.5 µg/mL in test [7]; 6.25 µg/mL in test [8]; 3.13 µg/mL in test [9]; 6.25 µg/mL in test [10]; 0.39 µg/mL in [11]. For the same molecule, the “Minimal inhibitory concentration (MIC)” value in test [12] is 1.56 µg/mL; in test [13] it was 12.5 µg/mL; in the test on Candida albicans C1-2, 12.5 µg/mL.
